Publication PMC2174548 (The Journal of Cell Biology, 2000)
Values belong to the compound of their own block, whether it stands above or below them.

Tests used:
Format in all cases: cell-based
[1] = target: T1, P-glycoprotein (Pgp) (Homo sapiens, UniProt P08183); assay: fluorescence accumulation in PgpCFP-transfected cells
[2] = target: T1, P-glycoprotein (Pgp); assay: fluorescence accumulation in PgpGFP-transfected cells
[3] = target: T1, P-glycoprotein (Pgp); assay: protection from microtubule depolymerization in PgpGFP-transfected HeLa cells
[4] = target: T1, P-glycoprotein (Pgp); assay: cellular drug accumulation versus Pgp expression
[5] = target: T1, P-glycoprotein (Pgp); assay: protection from microtubule depolymerization in PgpGFP-transfected HeLa cells; remark: listed apart in the source

T1 sequence (P08183 whole entry): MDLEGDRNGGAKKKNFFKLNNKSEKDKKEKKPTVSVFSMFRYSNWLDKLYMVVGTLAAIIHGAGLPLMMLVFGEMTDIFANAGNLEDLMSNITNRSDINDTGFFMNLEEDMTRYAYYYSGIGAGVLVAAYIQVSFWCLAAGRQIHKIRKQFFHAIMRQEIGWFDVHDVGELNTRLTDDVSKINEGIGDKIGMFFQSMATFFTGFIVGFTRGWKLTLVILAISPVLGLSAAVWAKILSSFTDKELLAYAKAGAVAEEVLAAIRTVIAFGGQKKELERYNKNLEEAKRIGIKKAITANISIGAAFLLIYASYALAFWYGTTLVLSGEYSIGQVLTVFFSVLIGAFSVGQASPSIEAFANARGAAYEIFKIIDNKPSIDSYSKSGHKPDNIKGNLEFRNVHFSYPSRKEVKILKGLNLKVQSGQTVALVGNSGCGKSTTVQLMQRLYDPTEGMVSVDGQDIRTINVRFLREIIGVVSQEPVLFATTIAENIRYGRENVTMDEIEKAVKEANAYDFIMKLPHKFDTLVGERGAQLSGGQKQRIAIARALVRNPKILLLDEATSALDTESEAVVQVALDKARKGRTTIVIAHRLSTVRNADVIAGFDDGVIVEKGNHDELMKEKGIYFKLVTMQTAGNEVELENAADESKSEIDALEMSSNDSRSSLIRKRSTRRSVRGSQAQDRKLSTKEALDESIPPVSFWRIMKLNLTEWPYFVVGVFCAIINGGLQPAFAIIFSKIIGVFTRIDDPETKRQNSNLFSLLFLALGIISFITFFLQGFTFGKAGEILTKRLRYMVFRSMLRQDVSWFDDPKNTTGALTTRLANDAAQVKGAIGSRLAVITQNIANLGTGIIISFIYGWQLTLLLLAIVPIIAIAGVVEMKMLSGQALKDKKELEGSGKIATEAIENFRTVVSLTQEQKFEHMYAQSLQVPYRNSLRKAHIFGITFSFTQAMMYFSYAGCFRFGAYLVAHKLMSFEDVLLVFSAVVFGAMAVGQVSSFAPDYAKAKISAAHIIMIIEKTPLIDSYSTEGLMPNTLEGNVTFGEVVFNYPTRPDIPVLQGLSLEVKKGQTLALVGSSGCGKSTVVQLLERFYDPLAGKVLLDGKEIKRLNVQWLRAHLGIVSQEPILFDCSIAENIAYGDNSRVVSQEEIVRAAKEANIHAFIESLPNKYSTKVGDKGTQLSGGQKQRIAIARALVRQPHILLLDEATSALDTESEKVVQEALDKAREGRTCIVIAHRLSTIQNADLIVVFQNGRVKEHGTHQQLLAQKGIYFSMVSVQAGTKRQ

Effects on fluorescence [1]: > 10 fold
Structure (SMILES): CC(=O)OCOC(=O)CN(CC(=O)OCOC(C)=O)Cc1cc2c(cc1OC(C)=O)Oc1cc(OC(C)=O)c(CN(CC(=O)OCOC(C)=O)CC(=O)OCOC(C)=O)cc1C21OC(=O)c2ccccc21 [Calcein AM]

Effects on fluorescence [2]: > 10 fold
Structure (SMILES): CC(=O)OCOC(=O)CN(CC(=O)OCOC(C)=O)c1ccc(C)cc1OCCOc1cc2cc(-c3ncc(C(=O)OCOC(C)=O)o3)oc2cc1N(CC(=O)OCOC(C)=O)CC(=O)OCOC(C)=O [Fura-2 AM]

Structure (SMILES): COc1cc2c(c(OC)c1OC)-c1ccc(OC)c(=O)cc1[C@@H](NC(C)=O)CC2 [colchicine]
Fold resistance [3]: 5–25 fold

Structure (SMILES): O=C1c2c(O)ccc(O)c2C(=O)c2c(NCCNCCO)ccc(NCCNCCO)c21 [mitoxantrone]
cellular drug accumulation versus Pgp expression (data not shown) [4]: the level of Pgp expression was inversely related to the cellular accumulation of mitoxantrone

protection from microtubule depolymerization in PgpGFP-transfected HeLa cells (2) [5]: 25–125 fold
Structure (SMILES): CC[C@]1(O)C[C@H]2CN(CCc3c([nH]c4ccccc34)[C@@](C(=O)OC)(c3cc4c(cc3OC)N(C=O)[C@H]3[C@@](O)(C(=O)OC)[C@H](OC(C)=O)[C@]5(CC)C=CCN6CC[C@]43[C@@H]65)C2)C1 [vincristine]
